# Data as given in patent US20110076298A1, “Soluble stabilized trimeric hiv env proteins and uses thereof” (priority 2006, published 2011).
# Key:
# [1] = tested on: 2G12, b6, b12, CD4-IgG2, HIVIg; assay: Lectin ELISA antigenicity, untreated vs Tween 20 treated; type: binding; details: 0.05% Tween 20, lectin ELISA
# Text: FIG. 8: Effect of Tween® 20 treatment on KNH1144 SOSIP R6 HMW aggregate antigenicity. Lectin ELISA of untreated and Tween® 20 treated KNH1144 SOSIP R6 HMW aggregate: Untreated or Tween® 20-treated HMW aggregate were bound to GNA lectin coated ELISA plates and probed with 2G12, b6, b12, CD4-IgG2, and HIVIg. The panels represent their respective binding curves. Antibody affinity to the untreated HMW aggregate is represented by the curve having diamond lines. Affinity to the Tween® 20 treated HMW aggregate is represented by curve having square lines. The Y-axis represents the colorimetric signal at OD492 and the X-axis represents antibody concentration in [ug/ml]. Lectin ELISA of untreated and Tween® 20-treated KNH1144 SOSIP R6 gp140 trimer: Untreated or Tween® 20 treated trimer (containing 10-15% HMW aggregate) were bound to GNA lectin coated ELISA plates and probed with 2G12, b6, b12, and CD4-IgG2. The panels represent their respective binding curves. Antibody affinity to the untreated trimer is represented by the curve having diamond lines. Affinity to the Tween® 20 treated trimer is represented by the curve having square lines. The Y-axis represents the colorimetric signal at OD492 and the X-axis represents antibody concentration in [ug/ml].
# ELISA plates were coated overnight at 4° C. with lentil lectin powder from Lens culinaris (L9267, Sigma) at 10 ug/ml concentration. […]
# [2] = Tween 20 aggregate conversion/collapse experiments, BN-PAGE; type: physicochemical; details: 0° C., room temperature, 37° C.
# Protocol: FIGS. 6A-6D: Tween® 20 conversion experiments. (A) Dose response: Purified KNH1144 SOSIP R6 gp140 trimer was incubated with 0 (no detergent control), or 0.1, 0.05, 0.01, 0.001, or 0.0001% Tween® 20 and analyzed by BN-PAGE and Coomassie G-250 stain. Arrows point to HMW aggregate and trimer species. M stands for the 669 k thyroglobulin and 440 k ferritin molecular weight protein standards. (B) Time course: Purified KNH1144 SOSIP R6 gp140 trimer was incubated with Tween® 20 for 5 min (left panel) or 10 min (right panel). Trimer was either untreated (−lane) or Tween® 20 treated (+lane). Arrows indicate trimer and HMW aggregate bands. […]
# Tween® 20 Dose effect: 1 ug of purified KNH1144 SOSIP R6 trimer was incubated with varying concentrations of Tween® 20 (polyoxyethylene sorbitan monolaurate) ranging from 0 to 0.0001% (v/v) and incubated for 1 hour at room temperature. Following incubation, samples were analyzed by BN-PAGE as described above. […]
# Temperature dependance on Tween® 20 effect: To determine if temperature affected the ability of Tween® 20 to recover trimers from aggregates (i.e., collapse aggregate into trimer), 1 ug of purified KNH1144 SOSIP R6 trimer was incubated with Tween® 20 to a final concentration of 0.05% (v/v) at 0° C. […] Following the incubation, samples were analyzed by BN-PAGE and Coomassie staining. […]
substance,measurement,setting,value
"KNH1144 SOSIP R6 HMW aggregate: high molecular weight aggregate species of KNH1144 SOSIP R6 gp140, slower migrating on BN-PAGE","antibody binding, Tween 20 treated vs untreated",[1],increased binding
same,temperature dependence of the Tween 20 effect,[2],temperature independent
